{
  "source": "patent US9926573B2",
  "about": "“Glyphosate-tolerant gene and use thereof” (priority 2012, dated 2018)",
  "key": {"[1]": {"system": "E. Coli BL21 (DE3) transformed with LS-EPSPS-PET", "assay": "Growth (OD) of E. coli strain transformed with LS-EPSPS-PET in glyphosate-containing LB", "assay_type": "cell-based", "conditions": "compared with strain with empty vector PET-28a", "method": "The LS-EPSPS gene was cloned into the vector PET-28a, and transferred to E. Coli BL21 (DE3), to obtain a transgenic strain. The reading frame of the transgenic strain was expressed under control of the T7 promoter in the PET system.\nThe stain transformed with LS-EPSPS-PET or PET-28a (empty vector, control) was incubated in LB, and grown in an LB liquid medium containing Kan at 37° C. when OD600 reached […], until the OD value reached about 0.4. […] These indicate that the LS-EPSPS gene has glyphosate-resistant/tolerant activity."}, "EPSPase [2]": {"system": "EPSPase", "assay": "Ex-vivo EPSPase activity assay, crude extract", "assay_type": "biochemical, wide-type Arabidopsis thaliana", "method": "(§1) 0.5 g of the seedlings of Ophiopogon japonicus, Liriope spicata, Liriope platyphylla and wide-type Arabidopsis thaliana were weighed, added with 150 ml of an extraction buffer A [containing 100 mmol/L Tris pH 7.5, 1 mmol/L EDTA, 10% (V/V) glycerol, 1 mg/L BSA, 10 mmol/L Vitamin C (Vc), 1 mmol/L benzamidine, 5 mmol/L DTT, and 20 mg/ml PVPP], ground and homogenized, filtered through 6 layers of gauze, and centrifuged at 12000 rpm and 4° C. […] Following the method as described by Lanzetta and Alvarez (1979), the reaction was developed for 30 min by adding 800 μl of malachite green hydrochloride, and then 100 μl of a 34% sodium citrate solution was added. After 30 min, the OD660 value was determined at 660 nm on a spectrophotometer. […] Logistic regression analysis was performed and the ED50 was calculated."}, "EPSPase [3]": {"molecular_target": "T1, EPSPase (Liriope muscari (Liriope platyphylla), UniProt A0A0N9BED7)", "T1 sequence (A0A0N9BED7 66-518)": "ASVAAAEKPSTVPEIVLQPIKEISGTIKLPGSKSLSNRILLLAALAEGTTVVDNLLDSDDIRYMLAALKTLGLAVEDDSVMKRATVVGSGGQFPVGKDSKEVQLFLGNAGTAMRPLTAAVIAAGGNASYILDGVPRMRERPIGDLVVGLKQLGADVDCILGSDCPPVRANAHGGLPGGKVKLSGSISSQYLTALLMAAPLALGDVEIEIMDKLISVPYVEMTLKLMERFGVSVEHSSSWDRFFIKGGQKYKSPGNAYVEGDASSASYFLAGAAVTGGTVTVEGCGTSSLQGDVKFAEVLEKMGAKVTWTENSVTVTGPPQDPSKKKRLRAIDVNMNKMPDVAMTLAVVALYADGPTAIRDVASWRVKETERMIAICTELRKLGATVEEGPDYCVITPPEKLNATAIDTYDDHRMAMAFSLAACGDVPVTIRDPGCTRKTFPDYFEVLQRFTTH", "assay": "Ex-vivo EPSPase activity assay, crude extract", "assay_type": "biochemical", "conditions": "25° C., 15 min", "method": "as §1"}, "EPSPase [4]": {"molecular_target": "T2, EPSPase (Liriope spicata, UniProt A0A0N9BED5)", "T2 sequence (A0A0N9BED5 66-518)": "T1 sequence (A0A0N9BED7 66-518) with A74T, S162T, I331V, T404N, G424A", "assay": "Ex-vivo EPSPase activity assay, crude extract", "assay_type": "biochemical", "conditions": "25° C., 15 min", "method": "as §1"}, "EPSPase [5]": {"molecular_target": "T3, EPSPase (Ophiopogon japonicus, UniProt A0A0N7E509)", "T3 sequence (A0A0N7E509 64-516)": "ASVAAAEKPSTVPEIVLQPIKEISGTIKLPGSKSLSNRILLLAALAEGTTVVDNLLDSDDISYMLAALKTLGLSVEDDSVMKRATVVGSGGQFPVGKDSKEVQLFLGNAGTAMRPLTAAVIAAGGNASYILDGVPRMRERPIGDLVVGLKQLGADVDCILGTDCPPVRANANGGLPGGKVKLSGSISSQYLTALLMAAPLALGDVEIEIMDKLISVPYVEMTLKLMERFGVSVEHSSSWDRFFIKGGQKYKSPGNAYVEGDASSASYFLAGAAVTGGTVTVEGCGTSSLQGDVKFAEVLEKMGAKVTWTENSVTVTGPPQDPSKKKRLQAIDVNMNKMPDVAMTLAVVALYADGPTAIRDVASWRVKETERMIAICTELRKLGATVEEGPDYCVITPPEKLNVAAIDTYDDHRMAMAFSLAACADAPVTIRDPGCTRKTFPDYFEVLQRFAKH", "assay": "Ex-vivo EPSPase activity assay, crude extract", "assay_type": "biochemical", "conditions": "25° C., 15 min", "method": "as §1"}, "[6]": {"system": "callus of the control Arabidopsis thaliana", "assay": "Callus growth on glyphosate-containing MS medium, control", "assay_type": "cell-based", "conditions": "two weeks, 25° C.", "method": "(§2) The transgenic Arabidopsis thaliana plant was obtained by screening. The stem of the tissue cultured seedling of the non-transgenic and the LS-EPSPS transgenic Arabidopsis thaliana was used as an explant for callus induction in an MS medium containing 2.0 mg/L of 6-BA and 0.1 mg/L of NAA. […] The results were statistically calculated after two weeks."}, "[7]": {"system": "callus of the transgenic Arabidopsis thaliana", "assay": "Callus growth on glyphosate-containing MS medium, LS-EPSPS transgenic", "assay_type": "cell-based", "conditions": "two weeks, 25° C.", "method": "as §2"}},
  "note": "Changes are numbered by the printed parent chain. pEC50: −log10 of the molar value.",
  "data": [
    {"smiles": "O=C(O)CNCP(=O)(O)O", "note": "[glyphosate, N-(phosphonomethyl)glycine]", "values": [
      {"measurement": "ED50 value of the strain (logistic regression)", "setting": "[1]", "result": "greatly higher than that of the strain with the empty vector PET-28a"},
      {"measurement": "glyphosate concentration at which EPSPase activity declines obviously", "setting": "EPSPase [2]; 25° C., 15 min", "result": 500, "unit": "µmol/L"},
      {"measurement": "pEC50", "setting": "EPSPase [2]; logistic regression, read-out: ED50 for the EPSPase activity", "result": 3.25},
      {"measurement": "glyphosate concentration at which EPSPase activity declines obviously", "setting": "EPSPase [3]", "result": 1000, "unit": "µmol/L"},
      {"measurement": "glyphosate concentration at which EPSPase activity declines obviously", "setting": "EPSPase [4]", "result": 1000, "unit": "µmol/L"},
      {"measurement": "glyphosate concentration at which EPSPase activity declines obviously", "setting": "EPSPase [5]", "result": 800, "unit": "µmol/L"},
      {"measurement": "glyphosate concentration at which callus becomes yellow and gradually mortifies", "setting": "[6]", "result": 50, "unit": "mg·L"},
      {"measurement": "glyphosate concentration at which callus can still normally grow", "setting": "[7]", "result": 600, "unit": "mg/L"},
      {"measurement": "glyphosate concentration at which callus is inhibited in growth and becomes brown and yellow", "setting": "[7]", "result": 800, "unit": "mg/L"}
    ]}
  ]
}
